Experimental findings from patent publication US8415469B2, “Compounds and methods for kinase modulation, and indications therefor” (Plexxikon Inc., priority 2005, dated 2013) are described below.

What all share (type): biochemical
One experiment has as its target T1, Flt4 (Homo sapiens, UniProt P35916).
T1 construct: purchased ProQinase GmbH (Freiburg, Germany)
Nature of the experiment: AlphaScreen kinase assay, Flt4. To be noted: read-out: IC50, activity toward kinase Flt4. The gist of the method:
(§1)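 AlphaScreen, biotin-peptide substrate; streptavidin donor/anti-phospho acceptor beads; decreased emission = inhibition. Cpds 20 mM DMSO stock, 1:3 x 8 conc.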
(Bead proximity is the source of the signal in Alpha formats.)

For the next experiment, the target named is T2, PKC theta (Homo sapiens, UniProt Q04759).
T2 construct: purchased Invitrogen (Carlsbad, Calif.), screening service
As to the kind of experiment: Z'-Lyte FRET kinase assay (Invitrogen), PKC theta. As to conditions: read-out: IC50, activity toward kinase PKC theta. The gist of the method:
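Under a compound concentration curve, the kinase acted on a dual-labelled peptide at 2 μM with ATP at 10 μM for one hour at ambient temperature (buffer pH 7.5, 1% DMSO). Phosphorylation extent came from the emission ratio after protease development.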

A further experiment concerns the target T3, Jnk3 (Homo sapiens, UniProt P53779).
T3 construct: purchased Upstate Biotechnology
Nature of the experiment: AlphaScreen kinase assay, Jnk3. As to conditions: read-out: IC50, activity toward kinase Jnk3.

In another experiment the target is T4, Pyk2 (Homo sapiens, UniProt Q14289).
T4 construct: purchased Upstate Biotechnology
Nature of the experiment: AlphaScreen kinase assay, Pyk2. As to conditions: read-out: IC50, activity toward kinase Pyk2.

The target of another experiment is T5, Met (Homo sapiens, UniProt P08581).
T5 construct: P1818.pETN6 BI-PTP MET G1056-G1364-X WT; His6 (N); made in house; host or cells: E. coli (PTP1B co-expressed)
As to the kind of experiment: AlphaScreen kinase assay, Met. To be noted: read-out: IC50, activity toward kinase Met. In outline:
as §1

A further experiment concerns the target T6, Stk6 (Homo sapiens, UniProt O14965).
T6 construct: purchased Invitrogen (Carlsbad, Calif.), screening service
T6 sequence (O14965 1-403): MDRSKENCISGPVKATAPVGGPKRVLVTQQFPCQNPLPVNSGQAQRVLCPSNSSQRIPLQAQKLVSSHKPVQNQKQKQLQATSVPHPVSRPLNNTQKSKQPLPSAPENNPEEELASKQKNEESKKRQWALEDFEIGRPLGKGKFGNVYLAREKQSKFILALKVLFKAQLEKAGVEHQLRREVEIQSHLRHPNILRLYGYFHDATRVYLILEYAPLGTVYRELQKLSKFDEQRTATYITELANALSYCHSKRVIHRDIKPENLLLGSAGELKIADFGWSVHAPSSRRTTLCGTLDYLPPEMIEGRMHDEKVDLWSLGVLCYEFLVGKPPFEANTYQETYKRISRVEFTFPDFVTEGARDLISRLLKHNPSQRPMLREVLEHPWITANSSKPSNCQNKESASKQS
Nature of the experiment: Z'-Lyte FRET kinase assay (Invitrogen), Stk6. As to conditions: read-out: IC50, activity toward kinase Stk6.

T1 sequence (P35916 25-1363): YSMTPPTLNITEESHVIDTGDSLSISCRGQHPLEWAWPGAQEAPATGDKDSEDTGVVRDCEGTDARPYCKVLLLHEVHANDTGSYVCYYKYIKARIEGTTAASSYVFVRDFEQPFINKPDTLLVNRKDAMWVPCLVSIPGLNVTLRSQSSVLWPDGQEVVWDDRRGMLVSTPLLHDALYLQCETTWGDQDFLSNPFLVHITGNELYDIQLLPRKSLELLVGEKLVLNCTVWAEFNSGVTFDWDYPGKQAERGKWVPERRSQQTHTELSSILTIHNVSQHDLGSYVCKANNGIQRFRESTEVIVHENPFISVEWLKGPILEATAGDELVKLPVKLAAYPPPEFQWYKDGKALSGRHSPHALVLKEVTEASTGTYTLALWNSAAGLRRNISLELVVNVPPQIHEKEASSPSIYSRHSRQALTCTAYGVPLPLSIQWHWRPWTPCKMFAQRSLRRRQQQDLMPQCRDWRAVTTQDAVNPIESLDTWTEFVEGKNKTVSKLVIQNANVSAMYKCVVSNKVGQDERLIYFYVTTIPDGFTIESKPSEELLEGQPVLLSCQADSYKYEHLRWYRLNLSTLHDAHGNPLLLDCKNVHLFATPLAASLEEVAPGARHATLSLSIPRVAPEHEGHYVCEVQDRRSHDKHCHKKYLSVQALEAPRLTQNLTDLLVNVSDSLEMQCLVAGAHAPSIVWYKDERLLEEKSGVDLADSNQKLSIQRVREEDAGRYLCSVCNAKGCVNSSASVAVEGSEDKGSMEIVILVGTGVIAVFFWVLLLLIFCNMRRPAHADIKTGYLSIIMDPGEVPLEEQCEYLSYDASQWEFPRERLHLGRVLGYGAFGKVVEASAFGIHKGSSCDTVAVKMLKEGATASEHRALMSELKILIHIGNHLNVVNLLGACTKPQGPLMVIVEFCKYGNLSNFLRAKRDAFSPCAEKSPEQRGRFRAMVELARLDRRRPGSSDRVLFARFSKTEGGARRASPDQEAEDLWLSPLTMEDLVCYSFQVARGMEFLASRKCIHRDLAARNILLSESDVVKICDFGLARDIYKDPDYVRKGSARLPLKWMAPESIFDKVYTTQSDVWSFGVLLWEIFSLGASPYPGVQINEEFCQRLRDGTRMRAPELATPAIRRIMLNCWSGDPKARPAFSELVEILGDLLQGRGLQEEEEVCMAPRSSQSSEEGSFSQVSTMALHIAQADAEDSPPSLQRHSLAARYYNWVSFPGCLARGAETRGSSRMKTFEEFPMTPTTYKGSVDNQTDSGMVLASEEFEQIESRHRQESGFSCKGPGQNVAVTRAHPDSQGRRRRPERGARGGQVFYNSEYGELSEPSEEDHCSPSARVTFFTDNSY
T5 sequence (P08581 with tags, fused parts or gaps): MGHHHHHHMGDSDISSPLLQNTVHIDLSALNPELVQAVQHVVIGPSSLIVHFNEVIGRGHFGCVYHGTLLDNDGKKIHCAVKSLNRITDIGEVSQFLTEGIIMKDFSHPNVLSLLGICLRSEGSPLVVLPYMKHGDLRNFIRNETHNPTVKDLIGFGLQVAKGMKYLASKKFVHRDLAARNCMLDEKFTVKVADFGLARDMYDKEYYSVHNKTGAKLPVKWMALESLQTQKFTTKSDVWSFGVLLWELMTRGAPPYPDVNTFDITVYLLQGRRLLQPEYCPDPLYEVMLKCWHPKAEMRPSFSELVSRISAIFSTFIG
T2 sequence (Q04759 whole entry): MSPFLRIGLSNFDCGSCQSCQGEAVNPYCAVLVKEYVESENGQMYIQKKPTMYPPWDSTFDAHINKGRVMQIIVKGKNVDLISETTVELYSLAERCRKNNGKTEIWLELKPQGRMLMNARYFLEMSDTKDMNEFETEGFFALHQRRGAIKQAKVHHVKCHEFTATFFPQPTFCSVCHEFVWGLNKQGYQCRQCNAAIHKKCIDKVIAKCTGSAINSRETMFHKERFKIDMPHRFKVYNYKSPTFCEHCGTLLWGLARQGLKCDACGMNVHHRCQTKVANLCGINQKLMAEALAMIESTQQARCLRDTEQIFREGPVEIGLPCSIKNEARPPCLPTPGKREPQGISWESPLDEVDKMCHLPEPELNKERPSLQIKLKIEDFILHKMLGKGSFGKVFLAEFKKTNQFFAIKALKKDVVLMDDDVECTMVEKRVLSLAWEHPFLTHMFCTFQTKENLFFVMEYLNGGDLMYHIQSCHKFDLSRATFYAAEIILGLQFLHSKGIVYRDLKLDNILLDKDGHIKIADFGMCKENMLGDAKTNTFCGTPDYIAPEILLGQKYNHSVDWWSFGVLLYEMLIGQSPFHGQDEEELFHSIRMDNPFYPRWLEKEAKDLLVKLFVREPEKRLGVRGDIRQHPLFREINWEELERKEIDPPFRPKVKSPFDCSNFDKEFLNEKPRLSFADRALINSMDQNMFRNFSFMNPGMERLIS
T3 sequence (P53779 whole entry): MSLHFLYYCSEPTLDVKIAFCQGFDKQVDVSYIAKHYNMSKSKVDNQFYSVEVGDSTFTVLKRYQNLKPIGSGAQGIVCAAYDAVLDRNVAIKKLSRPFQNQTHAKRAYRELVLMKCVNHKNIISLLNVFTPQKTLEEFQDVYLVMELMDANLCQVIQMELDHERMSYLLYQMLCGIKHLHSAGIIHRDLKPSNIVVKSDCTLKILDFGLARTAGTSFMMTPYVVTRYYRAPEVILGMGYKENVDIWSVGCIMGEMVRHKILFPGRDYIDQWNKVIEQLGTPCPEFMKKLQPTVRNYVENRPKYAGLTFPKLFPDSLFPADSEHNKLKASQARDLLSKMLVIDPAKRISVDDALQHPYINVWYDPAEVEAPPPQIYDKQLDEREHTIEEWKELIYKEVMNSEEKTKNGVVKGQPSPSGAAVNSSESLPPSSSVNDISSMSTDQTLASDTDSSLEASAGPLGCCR
T4 sequence (Q14289 whole entry): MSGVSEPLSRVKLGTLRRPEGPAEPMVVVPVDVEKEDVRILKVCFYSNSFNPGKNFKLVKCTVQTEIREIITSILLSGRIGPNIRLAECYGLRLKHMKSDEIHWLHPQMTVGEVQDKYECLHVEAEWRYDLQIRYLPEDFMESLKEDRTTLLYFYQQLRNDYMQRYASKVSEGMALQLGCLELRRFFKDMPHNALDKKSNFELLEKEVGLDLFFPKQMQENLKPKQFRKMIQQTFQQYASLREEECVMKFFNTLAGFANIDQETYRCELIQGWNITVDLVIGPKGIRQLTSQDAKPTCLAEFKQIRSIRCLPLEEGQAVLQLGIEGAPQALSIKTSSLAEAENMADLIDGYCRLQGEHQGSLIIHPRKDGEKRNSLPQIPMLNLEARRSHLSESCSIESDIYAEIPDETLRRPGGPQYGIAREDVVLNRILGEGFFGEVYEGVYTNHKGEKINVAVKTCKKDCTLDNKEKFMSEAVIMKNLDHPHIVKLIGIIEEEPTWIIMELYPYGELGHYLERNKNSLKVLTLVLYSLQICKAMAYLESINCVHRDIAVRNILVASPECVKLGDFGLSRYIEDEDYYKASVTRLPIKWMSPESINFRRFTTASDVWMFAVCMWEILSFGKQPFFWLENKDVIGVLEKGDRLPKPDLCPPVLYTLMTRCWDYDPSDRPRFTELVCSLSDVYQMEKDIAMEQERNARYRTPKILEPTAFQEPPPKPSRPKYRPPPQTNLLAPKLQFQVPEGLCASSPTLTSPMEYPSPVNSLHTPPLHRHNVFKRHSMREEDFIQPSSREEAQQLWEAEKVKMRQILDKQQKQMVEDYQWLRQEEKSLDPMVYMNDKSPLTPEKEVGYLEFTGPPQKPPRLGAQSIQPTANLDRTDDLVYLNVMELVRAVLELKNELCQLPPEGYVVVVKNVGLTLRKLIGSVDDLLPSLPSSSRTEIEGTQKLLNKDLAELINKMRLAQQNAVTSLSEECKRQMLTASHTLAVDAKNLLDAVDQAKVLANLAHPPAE

For orientation: IC50 means the point on the concentration scale where inhibition reaches its midpoint. Consider `CC(=O)Nc1cccc(-c2cnc3[nH]cc(C(=O)c4cc(O)ccc4F)c3c2)c1` [Compound P-0001], for which the 50% inhibitory concentration (IC50) on Flt4, on PKC theta, on Jnk3, on Pyk2, at Met and at Stk6 was no more than 10 µM in each case.

As for `Nc1cccc(-c2cnc3[nH]cc(C(=O)c4cc(O)ccc4F)c3c2)c1` [Compound P-0002], the IC50 at PKC theta, at Jnk3, at Met and on Stk6 was no more than 10 µM each time.

On to `Nc1cccc(-c2cnc3[nH]cc(C(=O)c4cccc(O)c4)c3c2)c1` [Compound P-0003], for which the 50% inhibitory concentration (IC50) on Flt4, on PKC theta, at Jnk3 and at Stk6 was no more than 10 µM in each case.

Regarding `Nc1cccc(-c2cnc3[nH]cc(C(=O)c4cccc(O)c4F)c3c2)c1` [Compound P-0004, [5-(3-amino-phenyl)-1H-pyrrolo[2,3-b]pyridin-3-yl]-(2-fluoro-3-hydroxy-phenyl)methanone], the 50% inhibitory concentration (IC50) on PKC theta, at Jnk3 and at Met was no more than 10 µM in each case.

On to `O=C(c1cc(O)ccc1F)c1c[nH]c2ncccc12` [Compound P-0005], for which the IC50 on Flt4 is no more than 10 µM.

Consider `Cc1c(O)cccc1C(=O)c1c[nH]c2ncc(-c3cccnc3)cc12` [Compound P-0006, (3-Hydroxy-2-methyl-phenyl)-(5-pyridin-3-yl-1H-pyrrolo[2,3b]pyridin-3-yl)-methanone], for which the half-maximal inhibitory concentration (IC50) at PKC theta, on Jnk3 and at Met was no more than 10 µM throughout.

Turning to `CS(=O)(=O)c1cccc(-c2cnc3[nH]cc(C(=O)c4cc(O)ccc4F)c3c2)c1` [Compound P-0008, (2-Fluoro-5-hydroxy-phenyl)-[5-(3-methanesulfonyl-phenyl)-1H-pyrrolo[2,3-b]pyridin-3-yl]-methanone], the IC50 on PKC theta, on Jnk3, on Met and on Stk6 was no more than 10 µM each time.

With `O=C(c1cccc(O)c1)c1c[nH]c2ncccc12` [Compound P-0011], the IC50 at Flt4, on PKC theta and at Stk6 was no more than 10 µM throughout.

For the molecule `O=C(c1cccc(O)c1)c1c[nH]c2nccc(Cl)c12` [Compound P-0012], the IC50 on Flt4 and on PKC theta was no more than 10 µM throughout.

With `NC(=O)c1ccc(-c2ccnc3[nH]cc(C(=O)c4cc(F)ccc4F)c23)cc1` [Compound P-0013], the half-inhibitory concentration (IC50) at PKC theta and on Stk6 was no more than 10 µM in each case.

`NC(=O)c1ccc(-c2ccnc3[nH]cc(C(=O)c4ccccc4F)c23)cc1` [Compound P-0014]: the half-inhibitory concentration (IC50) on PKC theta and at Stk6 was no more than 10 µM each time.

For the molecule `Cc1ccccc1C(=O)c1c[nH]c2nccc(-c3ccc(C(N)=O)cc3)c12` [Compound P-0017], the IC50 at PKC theta is no more than 10 µM.

Consider `O=C(c1cccc(O)c1)c1c[nH]c2ncc(Br)cc12` [Compound P-0019], for which the IC50 at Flt4 and at PKC theta was no more than 10 µM in each case.

Turning to `CS(=O)(=O)c1cccc(-c2cnc3[nH]cc(C(O)c4c(F)ccc(F)c4F)c3c2)c1` (stereo not drawn) [Compound P-0020], the half-inhibitory concentration (IC50) on PKC theta, on Met and at Stk6 was no more than 10 µM in each case.

`O=C(c1ccc(O)cc1Cl)c1c[nH]c2ncccc12` [Compound P-0021]: the IC50 on PKC theta and at Pyk2 was no more than 10 µM each time.

For the molecule `Nc1cccc(-c2ccnc3[nH]cc(C(=O)c4ccccc4F)c23)c1` [Compound P-0022], the IC50 at PKC theta and at Stk6 was no more than 10 µM throughout.

With `O=C(c1ccc(O)cc1)c1c[nH]c2ncc(-c3cccs3)cc12` [Compound P-0024, (4-Hydroxy-phenyl)-(5-thiophen-2-yl-1H-pyrrolo[2,3-b]pyridin-3-yl)-methanone], the half-inhibitory concentration (IC50) on Flt4, on PKC theta, on Jnk3 and at Pyk2 was no more than 10 µM each time.

Turning to `O=C(c1cccc(O)c1)c1c[nH]c2ncc(Nc3ccccc3)cc12` [Compound P-0025], the IC50 on PKC theta and on Jnk3 was no more than 10 µM each time.

As for `CS(=O)(=O)c1cccc(-c2cnc3[nH]cc(C(=O)c4cccc(O)c4F)c3c2)c1` [Compound P-0026, (2-Fluoro-3-hydroxy-phenyl)-[5-(3-methanesulfonylphenyl)1H-pyrrolo[2,3-b]pyridin-3-yl]-methanone], the IC50 on PKC theta, on Jnk3 and at Met was no more than 10 µM each time.

`Nc1ccnc2[nH]cc(C(=O)c3ccccc3)c12` [Compound P-0029]: the 50% inhibitory concentration (IC50) on Flt4 and at Stk6 was no more than 10 µM each time.

In the case of `O=C(c1cc(O)ccc1F)c1c[nH]c2ncc(-c3cccs3)cc12` [Compound P-0032], the IC50 on Flt4, on Jnk3, on Pyk2 and on Stk6 was no more than 10 µM throughout.

Take `O=C(c1cccc(O)c1)c1c[nH]c2nccc(-c3cc(F)cc(F)c3)c12` [Compound P-0039]: the concentration for half-maximal inhibition (IC50) at Flt4 and on PKC theta was no more than 10 µM in each case.

Consider `Cc1ccc(F)cc1C(=O)c1c[nH]c2ncc(-c3cccc(N)c3)cc12` [Compound P-0040], for which the IC50 on Flt4, on Jnk3 and on Stk6 was no more than 10 µM each time.

For `Cn1cc(C(F)(F)F)c(-c2ccc(S(=O)(=O)NCc3c[nH]c4ncccc34)s2)n1` [Compound P-0041], the IC50 on Flt4, at Jnk3, on Pyk2, on Met and at Stk6 was no more than 10 µM throughout.

For `Cc1ccccc1C(=O)c1c[nH]c2nccc(-c3cccc(N)c3)c12` [Compound P-0044], the IC50 at PKC theta and on Stk6 was no more than 10 µM throughout.

Regarding `Nc1cccc(-c2ccnc3[nH]cc(C(=O)c4cc(F)ccc4F)c23)c1` [Compound P-0046], the concentration for half-maximal inhibition (IC50) at PKC theta and at Stk6 was no more than 10 µM in each case.

Consider `NC(=O)c1cccc(-c2ccnc3[nH]cc(C(=O)c4cc(F)ccc4F)c23)c1` [Compound P-0049], for which the 50% inhibitory concentration (IC50) on PKC theta and on Stk6 was no more than 10 µM each time.

As to `O=C(c1ccccc1F)c1c[nH]c2nccc(-c3ccsc3)c12` [Compound P-0051], the IC50 at PKC theta and at Stk6 was no more than 10 µM each time.

As to `Cc1c(O)cccc1C(=O)c1c[nH]c2ncc(Br)cc12` [Compound P-0055, (5-Bromo-1H-pyrrolo[2,3-b]pyridin-3-yl)-(3-hydroxy-2-methyl-phenyl)-methanone], the IC50 on PKC theta is no more than 10 µM.

Turning to `CS(=O)(=O)Nc1cccc(-c2ccnc3[nH]cc(C(=O)c4cc(F)ccc4F)c23)c1` [Compound P-0060], the IC50 at PKC theta and at Stk6 was no more than 10 µM each time.

With `O=C(c1cc(F)ccc1F)c1c[nH]c2nccc(-c3cccnc3)c12` [Compound P-0063], the IC50 at PKC theta and at Stk6 was no more than 10 µM each time.

For `CC(=O)Nc1cccc(-c2ccnc3[nH]cc(C(=O)c4ccccc4F)c23)c1` [Compound P-0070], the IC50 on PKC theta and at Stk6 was no more than 10 µM in each case.

Take `COc1ccc(F)c(C(=O)c2c[nH]c3ncc(-c4cccnc4)cc23)c1` [Compound P-0090]: the IC50 at Flt4 and on Jnk3 was no more than 10 µM in each case.

`Oc1cc(O)cc(Cc2c[nH]c3ncc(-c4ccsc4)cc23)c1` [Compound P-0093]: the IC50 on Flt4, on Jnk3 and at Stk6 was no more than 10 µM throughout.

Take `Cc1ccccc1C(=O)c1c[nH]c2nccc(-c3cccc(NS(C)(=O)=O)c3)c12` [Compound P-0109]: the half-inhibitory concentration (IC50) at PKC theta was no more than 10 µM.

As to `O=C(c1cccc(O)c1)c1c[nH]c2ncc(-c3cccs3)cc12` [Compound P-0196], the IC50 at Flt4 and at Jnk3 was no more than 10 µM throughout.

For `O=C(c1cccc(O)c1F)c1c[nH]c2ncc(-c3cccs3)cc12` [Compound P-0521, (2-fluoro-3-hydroxy-phenyl)-(5-thiophen-2-yl-1H-pyrrolo[2,3-b]pyridin-3-yl)-methanone], the 50% inhibitory concentration (IC50) on Flt4, at Jnk3 and on Pyk2 was no more than 10 µM each time.

Regarding `CCCC(=O)Nc1ccc(F)c(Cc2c[nH]c3ncc(-c4cccnc4)cc23)c1F` [Compound P-1280], the concentration for half-maximal inhibition (IC50) at Jnk3, on Pyk2, at Met and on Stk6 was no more than 10 µM each time.
